According to ChEMBL document CHEMBL1140713, “2,3-dihydro-6,7-dihydroxy-1H-isoindol-1-one-based HIV-1 integrase inhibitors” (J Med Chem, 2008):

Legend:
[1] = biological target: T1, Human immunodeficiency virus type 1 integrase (Human immunodeficiency virus 1, UniProt Q7ZJM1); assay: Inhibition of recombinant HIV1 integrase-mediated 3'-processing activity in presence of magnesium
[2] = biological target: T1, Human immunodeficiency virus type 1 integrase; assay: Inhibition of recombinant HIV1 integrase strand transfer activity in presence of magnesium
[3] = test system: Human immunodeficiency virus 1; assay: Antiviral activity against HIV1 in cell based assay; type: functional, organism-based
[4] = biological target: T1, Human immunodeficiency virus type 1 integrase; assay: Inhibition of recombinant HIV1 integrase-mediated 3'-processing activity in presence of manganese
[5] = biological target: T1, Human immunodeficiency virus type 1 integrase; assay: Inhibition of recombinant HIV1 integrase strand transfer activity in presence of manganese

T1 sequence (Q7ZJM1 whole entry): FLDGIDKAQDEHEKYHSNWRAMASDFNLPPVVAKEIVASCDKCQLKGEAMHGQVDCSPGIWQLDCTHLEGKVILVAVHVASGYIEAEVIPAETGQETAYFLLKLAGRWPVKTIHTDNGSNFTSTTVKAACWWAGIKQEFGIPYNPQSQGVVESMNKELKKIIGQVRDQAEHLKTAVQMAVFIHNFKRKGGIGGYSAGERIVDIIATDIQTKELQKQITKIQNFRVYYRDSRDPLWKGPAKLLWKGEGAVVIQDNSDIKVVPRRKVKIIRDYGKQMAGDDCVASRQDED

IC50 [1] [µM] | IC50 [2] [µM] | EC50 [3] [µM] | IC50 [4] [µM] | IC50 [5] [µM] | Compound
> 333 | > 333 |  |  |  | O=C1c2ccc(O)c(O)c2CN1Cc1ccc(F)cc1
> 333 | 129 |  |  |  | O=C(NN1Cc2ccc(O)c(O)c2C1=O)c1ccccc1
61 | 0.74 |  |  |  | O=C1c2c(ccc(O)c2O)CN1Cc1cccc2ccccc12
282 | 10 | 0.77 |  |  | O=C1c2c(ccc(O)c2O)CN1Cc1ccc(F)cc1
37 | 13 |  |  |  | O=C1c2c(ccc(O)c2O)CN1Cc1cccc(CBr)c1
7 | 1.2 |  |  |  | O=C1c2c(ccc(O)c2O)CN1N1Cc2ccc(O)c(O)c2S1(=O)=O
> 333 | > 333 |  | > 333 | > 333 | COc1cccc(C(=O)NNC(=O)c2cccnc2)c1O
> 333 | 28 |  |  |  | O=C1c2c(ccc(O)c2O)CN1CCc1ccccc1
78 | 0.6 |  |  |  | O=C1c2c(ccc(O)c2O)CN1N1C(=O)c2ccc(O)c(O)c2C1=O
> 333 | > 333 |  | 12 | 8 | COc1cccc(C(=O)NNC(=O)c2cc3ccccc3cc2O)c1O
> 333 | 172 |  |  |  | O=C1c2c(ccc(O)c2O)CN1Cc1cccc(Cc2ccccc2)c1
85 | 50 |  |  |  | O=C(NCCNC(=O)c1cccc(O)c1O)c1cccc(O)c1O
> 333 | > 333 |  |  |  | COc1cccc(C(=O)N/N=C/c2ccc(F)cc2)c1O
> 333 | 12.3 | 0.68 |  |  | O=C1c2c(ccc(O)c2O)CN1Cc1ccccc1
61 | 54 |  | 11 | 1.3 | O=C(N/N=C/c1cccc(O)c1O)c1cccc(O)c1O
6.9 | 1.6 | 1.67 | 8.9 | 5 | O=C(NNC(=O)c1cccc(O)c1O)c1cccc(O)c1O
245 | 123 |  | 26 | 22 | COc1cccc(C(=O)NNC(=O)c2cccc(OC)c2O)c1O
69 | 21 |  |  |  | O=C1c2c(ccc(O)c2O)CN1NS(=O)(=O)c1ccc(F)cc1
> 333 | 108 | > 30 |  |  | O=C(NCc1ccc(F)cc1)c1cccc(O)c1O
> 333 | > 333 |  |  |  | O=C1c2c(ccc(O)c2O)CN1N1C(=O)c2ccccc2C1=O
> 333 | 293 |  |  |  | O=C(NN1Cc2ccc(O)c(O)c2C1=O)c1ccccc1O

IC50 [1] [µM] | IC50 [2] [µM] | EC50 [3] [µM] | IC50 [4] [µM] | IC50 [5] [µM] | Compound
> 333 | > 333 |  |  |  | O=C1c2c(ccc(O)c2O)CN1/N=C/c1ccc(F)cc1
186 | 53 |  |  |  | O=C1c2c(ccc(O)c2O)CN1N1C(=O)c2ccc(F)cc2C1=O
124 | 41 |  |  |  | O=C1c2c(ccc(O)c2O)CN1N1Cc2ccc(O)c(O)c2C1=O
> 333 | > 333 |  |  |  | COc1cccc(C(=O)NCc2ccc(F)cc2)c1O
72 | 32 |  | 19 | 16 | O=C(NNC(=O)c1cccc(O)c1O)c1cc2ccccc2cc1O
138 | 44 |  | 11 | 9 | COc1cccc(C(=O)NNC(=O)c2cccc(O)c2O)c1O
42 | 11 |  |  |  | O=C1c2c(ccc(O)c2O)CN1N1C(=O)c2cccc(O)c2C1=O
> 333 | > 333 |  |  |  | O=C1c2cccc(O)c2C(=O)N1Cc1ccc(F)cc1
87 | 54 |  |  |  | O=C1c2c(ccc(O)c2O)CN1/N=C/c1cccc(O)c1O
> 333 | > 333 | 2.2 | 3.6 | 1.8 | O=C(NNC(=O)c1ccccc1O)c1ccccc1O
> 333 | > 333 |  | > 333 | 111 | NNC(=O)c1cccc(O)c1O
6.7 | 0.81 |  |  |  | O=C1c2c(ccc(O)c2O)CN1N1C(=O)c2cc(O)c(O)cc2C1=O
> 333 | > 333 | 4.8 | 2.8 | 0.5 | O=C(NNC(=O)c1cccc(O)c1O)c1ccccc1O
> 333 | > 333 |  | > 333 | > 333 | COc1cccc(C(=O)NN)c1O
1.6 | 0.21 |  |  |  | O=C1c2c(ccc(O)c2O)CN1N(S(=O)(=O)c1ccc(O)c(O)c1)S(=O)(=O)c1ccc(O)c(O)c1
> 333 | 33 |  |  |  | O=C1c2c(ccc(O)c2O)CN1N(S(=O)(=O)c1ccc(F)cc1)S(=O)(=O)c1ccc(F)cc1
33 | 31 |  |  |  | O=C(NCCCNC(=O)c1cccc(O)c1O)c1cccc(O)c1O
> 333 | > 333 |  | > 333 | 112 | O=C(NNC(=O)c1cccc(O)c1O)c1cccnc1
> 333 | 6 |  |  |  | O=C(NN1Cc2ccc(O)c(O)c2C1=O)c1cccc(O)c1O
> 333 | 170 |  |  |  | O=C(NN1Cc2ccc(O)c(O)c2C1=O)c1ccc(F)cc1
112 | 68 |  | > 333 | 18 | COc1cccc(/C=N/NC(=O)c2cccc(O)c2O)c1OC

Compound | IC50 [1] [µM] | IC50 [2] [µM] | EC50 [3] [µM] | IC50 [4] [µM] | IC50 [5] [µM]
O=C1c2c(ccc(O)c2O)CN1Cc1ccc(F)c(Cl)c1 | 13 | 0.16 |  |  | 
